Assays:
[1] = test system: intestinal bacteria recovered from conventional mouse small intestine; assay: Flow cytometry binding to intestinal bacteria; conditions: 30 μM conjugate, 40 minutes on ice, formaldehyde-fixed bacteria
Listeria monocytogenes = assay: Bactericidal activity after N-terminal cleavage with trypsin; assay type: cell-based; conditions: 5 μM protein, 2 hours at 37° C., L. monocytogenes
Procedure: Eleven amino acids were truncated from the N-terminus HIP/PAP resulting in increase bactericidal activity.
Purified recombinant HIP/PAP was cleaved by the addition of bovine trypsin (Sigma) in a 1:200 molar ratio (trypsin:HIP/PAP). After 2 hours incubation at 37° C., 5 μM trypsin-treated HIP/PAP or uncleaved recombinant HIP/PAP was added to Listeria monocytogenes that had been grown to mid-log phase in brain-heart infusion (BHI) broth and resuspended in 25 mM MES pH 6, 25 mM NaCl. Initial bacterial concentrations ranged from 10^5 to 10^6 CFU/ml. After incubation for 2 hours at 37° C., viable bacteria were quantitated by dilution plating on BHI agar plates.

## BSA-AlexaFluor555: AlexaFluor555-labeled BSA, control for flow cytometry binding to intestinal bacteria
[1]
  binding of AlexaFluor555 conjugate to intestinal bacteria (flow cytometry): no binding

## trypsin-treated HIP/PAP: recombinant HIP/PAP cleaved with bovine trypsin, 11 amino acids removed from the N-terminus
Listeria monocytogenes
  bactericidal activity with or without N-terminal truncation (11 amino acids): increased bactericidal activity

— patent US8212007B2, “Expression and purification of HIP/PAP and uses therefor” (priority 2007, dated 2012)
